Source: publication PMC5986788, “Succinate induces aberrant mitochondrial fission in cardiomyocytes through GPR91 signaling” (Cell Death & Disease, 2018)
pEC50: −log10 of the molar value.

Target: T1, G protein-coupled receptor-91 (GPR91) (Rattus norvegicus, UniProt Q6IYF9)
T1 construct: gene Sucnr1
Assay: cell-based

T1 sequence (Q6IYF9 whole entry): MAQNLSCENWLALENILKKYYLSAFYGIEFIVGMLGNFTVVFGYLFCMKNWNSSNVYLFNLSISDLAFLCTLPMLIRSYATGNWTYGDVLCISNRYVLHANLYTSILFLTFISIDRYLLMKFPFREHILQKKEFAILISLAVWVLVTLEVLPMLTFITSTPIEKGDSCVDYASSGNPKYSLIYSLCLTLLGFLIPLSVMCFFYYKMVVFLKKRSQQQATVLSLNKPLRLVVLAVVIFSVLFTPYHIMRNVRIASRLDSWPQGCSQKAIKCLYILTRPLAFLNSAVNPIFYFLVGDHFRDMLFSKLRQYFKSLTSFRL

- pEC50: 3.81
SMILES: O=C(O)CCC(=O)O [succinate]
